Columns and labels:
[1] = Heating at 145° C., XRD of the heated sample; type: physicochemical; conditions: 200 mg heated at 145° C. for 10 min
Procedure: Armodafinil Form I may also be prepared by drying armodafinil Form IV. Preferably, the process comprises heating armodafinil Form IV to a temperature of about 120° C. to 150° C. for at least about 10 minutes. Preferably, the heating is to a temperature of about 145° C. Preferably, the heating is conducted over a period of about 15 minutes about 30 minutes. For example, armodafinil Form IV 200 mg is heated for about 10 minutes. Form IV may be prepared according to WO 2004/060858.
Armodafinil Form IV (200 mg) was heated at 145° C. for 10 min forming a heated sample.

[2] = Stability of the crystal form under pressure of 2-10 tons (tablet compression); type: physicochemical
Procedure: Form A is stable by pressure of about 2-10 tons which is used in the compression stage during the tablet preparation.
A further method of preparing armodafinil Form I comprises submitting armodafinil Form IV to a pressure of about 2 tons to about 10 tons to obtain armodafinil Form I. Preferably, the pressure is applied for a period of about 1 minute to about 5 minutes. The time will depend upon the amount of armodafinil Form IV; for example, armodafinil 100 mg of Form IV is pressed with 10 tons for 1 minute.
Armodafinil Form IV (100 mg) was pressed with pressure of 2 tons or 10 tons for 1 min forming a pressed sample.

[3] = Grinding with mortar and pestle, XRD of the ground sample; type: physicochemical; conditions: 100 mg ground with mortar and pestle for a few minutes
Procedure: Another method for preparing armodafinil Form I comprises grinding armodafinil Form IV. Preferably, the grinding is carried out over a period of about 1 minute to about 5 minutes, more preferably, about 1 min. Depending on the amount of armodafinil Form IV, different grinding methods may be used. For example, 200 mg of armodafinil Form IV is ground with a mortar and pestle for 1 minute.
Armodafinil Form IV (100 mg) was ground with mortar and pestle for a few minutes forming a ground sample.

[4] = Prisinzano et al., Tetrahedron: Asymmetry (2004); cited from earlier work
[5] = Exposure to 100% relative humidity, followed by TGA and XRD; type: physicochemical
Procedure: Another embodiment of the invention encompasses armodafinil monohydrate. Armodafinil monohydrate may be prepared by a method comprising exposing armodafinil Form 1 to 100% relative humidity at a temperature of about 30° C. to about 60° C. for at least 7 days. Preferably, the heating is to a temperature of about 30° C. to about 40° C. In one example 200 mg of armodafinil Form I is heated at 30° C. in 100% relative humidity for 13 days.
X-Ray powder diffraction data were obtained by using methods known in the art. A SCINTAG powder X-ray diffractometer model X′TRA equipped with a solid-state detector was employed with copper radiation of 1.5418 Å and a round aluminum sample holder with zero background. The scanning parameters included: range: 2-40 degrees two-theta; scan mode: continuous scan; step size: 0.05 deg.; and a rate of 5 deg/min. All peak positions are within ±0.2 degrees two theta.
TGA analysis was performed using a Metler M3 thermo gravimeter. Samples of about 8 mg were analyzed in standard 150 μl alumina crucibles covered by lids with 1 hole. Each sample was scanned at a rate of 10° C./min from 25° C. to 200° C. A blank was subtracted from the sample. The oven was constantly purged with nitrogen gas at a flow rate of 40 ml/min.
Armodafinil Form A (200 mg) was exposed to 100% humidity for 7 days at 30° C. The XRD diffractogram of armodafinil Form I is illustrated in FIG. 3.

[6] = Form A exposed to 100% humidity for 7 days at 30° C.
[7] = Form A, Initial (before exposure)
[8] = Form I exposed to 100% Relative Humidity at 30° C. for 13 days
[9] = Form I exposed to 100% Relative Humidity at 60° C. for 13 days
[10] = Form I, Initial (Table 1, 30° C. study)
[11] = Form I, Initial (Table 2, 60° C. study)

With `NC(=O)C[S@@+]([O-])C(c1ccccc1)c1ccccc1` [Armodafinil Form IV, 2-[(R)-(diphenylmethyl)sulfinyl]acetamide] the “Crystal form (by XRD) of heated sample” value [1] was “Form I”, the “Crystal form (by XRD) of pressed sample” value ([2]; 100 mg pressed with 2 tons or 10 tons for 1 min) was “Form I” and the “Crystal form (by XRD) of ground sample” value [3] was “Form I”.

In the case of `NC(=O)C[S@@+]([O-])C(c1ccccc1)c1ccccc1` (single isomer, unassigned) [S enantiomer], the “Elimination from the body compared with the R enantiomer” value [4] is given as “three times faster”.

For `NC(=O)C[S@@+]([O-])C(c1ccccc1)c1ccccc1` [Armodafinil Form A, 2-[(R)-(diphenylmethyl)sulfinyl]acetamide], the “% Weight loss (by TGA)” value [5, 6] was 3.5%, the “Crystal form (by XRD)” value [5, 6] was “Form I” and the “% Weight loss (by TGA)” value [5, 7] was 0.3%. For the same molecule, the “Crystal form (by XRD)” value [5, 7] was “Form A” and the Stability by pressure ([2]; pressure of about 2-10 tons, as used in the compression stage of tablet preparation) was “stable”.

In the case of `NC(=O)C[S@@+]([O-])C(c1ccccc1)c1ccccc1` [armodafinil Form I, 2-[(R)-(diphenylmethyl)sulfinyl]acetamide], the “% Weight loss (by TGA)” value [5, 8] is reported as 5.6%, the “Crystal form (by XRD)” value [5, 8] is reported as “Form I” and the “% Weight loss (by TGA)” value [5, 9] is reported as 7.4%. The “Crystal form (by XRD)” value [5, 9] was “Form I”, the “% Weight loss (by TGA)” value [5, 10] was 0.1% and the “Crystal form (by XRD)” value [5, 10] was “Form I”. For the same molecule, the “% Weight loss (by TGA)” value [5, 11] was 0.1% and the “Crystal form (by XRD)” value [5, 11] was “Form I”.

Reference: patent publication US20090292025A1, “Novel crystalline forms of armodafinil and preparation thereof” (Teva Pharmaceutical Industries Ltd., priority 2006, published 2009)
